Results from PubChem BioAssay (NCI).
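Cells were grown in 96-well plates and exposed to each compound for 48 hours at five concentrations; endpoints were interpolated linearly between bracketing concentrations, or set to the highest concentration if not reached. The concentration for 50% growth inhibition is given as GI50. TGI is the concentration that stops growth completely.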

Experiments:
Assay in all cases: NCI anticancer screen, dose series, 48 h
[1] = tested on: MCF7 breast
[2] = tested on: OVCAR-4 ovarian
[3] = tested on: A549 NSCLC
[4] = tested on: MDA-MB-435
[5] = tested on: HOP-62 NSCLC
[6] = tested on: SK-MEL-2 melanoma
[7] = tested on: SN12C renal
[8] = tested on: NCI/ADR-RES ovarian

Structure (SMILES) | TGI [1] [µM] | TGI [2] [µM] | TGI [3] [µM] | TGI [4] [µM] | TGI [5] [µM] | TGI [6] [µM] | TGI [7] [µM] | TGI [8] [µM] | GI50 [1] [µM] | GI50 [2] [µM] | GI50 [3] [µM] | GI50 [4] [µM] | GI50 [5] [µM] | GI50 [6] [µM] | GI50 [7] [µM] | GI50 [8] [µM]
CC1(C)CCC[C@]2(C)[C@@H](C=O)C(C=O)=CC[C@@H]12 | 31 | 44.9 | > 100 | > 100 | > 100 | 39.7 | 39.9 | 40.8 | – | – | – | – | – | – | – | –
CC1(C)N=C(N)N=C(N)N1c1ccc(CCCCc2ccc(S(=O)(=O)F)cc2)c(Cl)c1 | 14.2 | 22 | > 44.8 | 16.6 | 23.7 | 20.7 | 16.2 | > 100 | 0.198 | 5.18 | 0.334 | 0.0666 | 1.45 | 2.48 | 0.189 | 45
CN1CCC(n2cnc(-c3ccc(F)cc3)c2-c2ccnc(N)n2)CC1 | > 25 | > 25 | > 25 | > 25 | > 25 | > 25 | > 25 | > 25 | 1.32 | 7.04 | 7.47 | 8.82 | 9.44 | > 25 | 6.43 | 7.55
CC(=O)Oc1ccccc1C(=O)/C=C/c1cccc([N+](=O)[O-])c1 | 10.6 | 23.1 | 23.3 | 3.55 | 7.8 | 29.4 | 6.79 | 18.7 | 1.99 | 5.95 | 5.48 | 1.65 | 2.5 | 15.1 | 2.53 | 3.88
CCN1C(=O)N(CC)C2C1NN=c1s/c(=C\c3ccccc3Br)c(=O)n12 (stereo not drawn) | 16.5 | 63 | > 75.3 | 0.0416 | 20.4 | 25.5 | 31.2 | 15.3 | 0.0328 | 0.069 | 0.0408 | < 0.0137 | 0.0485 | 0.308 | 0.0519 | 0.0228
COC(=O)c1nc(-c2ccccc2)oc1S(=O)(=O)n1nc(C)cc1N | 27.5 | 36 | 84 | 25.3 | 84.2 | 30.5 | 19.7 | 57.6 | 6.95 | 16.2 | 28.9 | 11.4 | 27.9 | 13.7 | 5.64 | 22.5
O=C(Oc1cccnc1)c1ccsc1Nc1ccnc(C(F)(F)F)c1 | > 100 | > 100 | > 100 | 11.8 | > 100 | > 100 | > 100 | > 100 | 3.51 | 5.21 | 7.68 | 2.88 | 25 | 4.19 | 4.44 | 4.62
C[C@@H]1O[C@@H](OC[C@H]2O[C@@H](OCCc3ccc(O)c(O)c3)[C@H](O)[C@@H](O)[C@@H]2OC(=O)/C=C/c2ccc(O)c(O)c2)[C@H](O)[C@H](O)[C@H]1O | – | > 100 | > 100 | > 100 | > 100 | > 100 | > 100 | > 100 | – | > 100 | > 100 | > 100 | > 100 | > 100 | > 100 | 74.3
COc1ccc2c(c1OC)C(=O)OC2C1c2c(c([N+](=O)[O-])c3c(c2OC)OCO3)CCN1C (stereo not drawn) | > 100 | > 100 | > 100 | > 100 | > 100 | > 100 | > 100 | > 100 | > 100 | > 100 | > 100 | > 100 | > 100 | > 100 | > 100 | > 100
CCCCCn1sc(=O)n(Cc2ccc(CNC(=O)OCc3ccc4cccc(O)c4n3)cc2)c1=O | 3.7 | 3.21 | 5.57 | 2.5 | 14.9 | 3.47 | 2.82 | 4.41 | 1.34 | 1.67 | 2.12 | 1.17 | 2.73 | 1.72 | 1.49 | 1.54
Cc1nc2ccccc2c(/C=C/c2ccc(Br)cc2)c1C(=O)/C=C/c1ccccc1 | 2.72 | 4.49 | 4.57 | 4.69 | 3.4 | 3.46 | 3.68 | 5.31 | 0.895 | 1.69 | 1.91 | 1.94 | 1.76 | 1.75 | 1.76 | 2.13
CCN1C(=O)N(CC)C2C1NN=c1s/c(=C3\C(=O)N(CCc4ccccc4)c4ccccc43)c(=O)n12 (stereo not drawn) | > 67.7 | > 100 | > 39.5 | 0.684 | 9.97 | 12.3 | – | 6.48 | 0.353 | 1.13 | 0.638 | 0.245 | 0.697 | 1.26 | 1.34 | 0.378
Cn1cc(-c2nonc2-c2cn(C)c3ccccc23)c2ccccc21 | > 100 | > 100 | > 100 | 0.635 | > 72.7 | > 100 | > 100 | > 100 | 0.591 | 2.74 | 1.22 | 0.228 | 1.25 | 1.22 | 1.76 | 0.626
CN1CCN(CC(O)COc2c(Br)c(Br)c(Br)c3c2OC(C)(C)C3)CC1 (stereo not drawn) | 14.5 | 35.1 | 30.4 | – | 25.1 | 25.2 | 31.6 | 49 | 3.33 | 13.7 | 10.6 | – | 4.26 | 10.2 | 11.8 | 15.9
CN(C)c1ccc(N=Nc2ccncc2)cc1 | > 100 | > 100 | > 100 | > 100 | > 100 | – | > 100 | > 100 | – | – | – | – | – | – | – | –
